{"source": "ChEMBL document CHEMBL6177971", "about": "“Iterative Optimization Yields Stapled Peptides with Superior Pharmacokinetics and Potency for Renal Fibrosis Treatment” (J Med Chem, 2025)", "key": {"Mus musculus [1]": {"test_system": "Mus musculus", "assay": "Anti-fibrotic activity in C57BL/6J mouse model of unilateral ureteral obstruction assessed as decrease in TGF-beta1 mRNA level at 0.25 mg/kg, ip administered every day for 7 days by qPCR analysis", "type": "functional, organism-based", "conditions": "time 7.0 day"}, "NIH3T3 [2]": {"test_system": "NIH3T3", "assay": "Inhibition of myofibroblast activation in TGF-beta1-induced EMT in mouse NIH3T3 cells assessed as decrease in vimentin mRNA level at 1 to 2 uM incubated for 48 hrs by qPCR analysis", "type": "functional, cell-based", "conditions": "dose 1-2 µM"}, "NIH3T3 [3]": {"test_system": "NIH3T3", "assay": "Inhibition of myofibroblast activation in TGF-beta1-induced EMT in mouse NIH3T3 cells assessed as decrease in MMP2 mRNA level at 1 to 2 uM incubated for 48 hrs by qPCR analysis", "type": "functional, cell-based", "conditions": "dose 1-2 µM"}, "NIH3T3 [4]": {"test_system": "NIH3T3", "assay": "Inhibition of myofibroblast activation in TGF-beta1-induced EMT in mouse NIH3T3 cells assessed as decrease in collagen I level at 1 to 2 uM incubated for 48 hrs by Western blot analysis", "type": "functional, cell-based", "conditions": "dose 1-2 µM"}, "HK-2 [5]": {"test_system": "HK-2", "assay": "Inhibition of myofibroblast activation in TGF-beta1-induced EMT in human HK-2 cells assessed as decrease in MMP2 mRNA level at 1 to 5 uM incubated for 24 hrs by qPCR analysis", "type": "functional, cell-based", "conditions": "dose 1-5 µM"}, "NIH3T3 [6]": {"test_system": "NIH3T3", "assay": "Inhibition of TGF-beta1-induced EMT in mouse NIH3T3 cells assessed as decrease in fibronectin level at 10 uM incubated for 48 hrs by Western blot analysis", "type": "functional, cell-based"}, "Mus musculus [7]": {"test_system": "Mus musculus", "assay": "Anti-fibrotic activity in C57BL/6J mouse model of unilateral ureteral obstruction assessed as decrease in alpha-SMA mRNA level at 0.25 mg/kg, ip administered every day for 7 days by qPCR analysis", "type": "functional, organism-based", "conditions": "time 7.0 day"}, "Mus musculus [8]": {"test_system": "Mus musculus", "assay": "Anti-fibrotic activity in C57BL/6J mouse model of unilateral ureteral obstruction assessed as decrease in renal fibrosis at 0.05 to 1.25 mg/kg, ip administered every day for 7 days by H and E staining based analysis", "type": "functional, organism-based", "conditions": "dose 0.05-1.25 mg/kg, time 7.0 day"}, "HK-2 [9]": {"test_system": "HK-2", "assay": "Inhibition of myofibroblast activation in TGF-beta1-induced EMT in human HK-2 cells assessed as decrease in VIM mRNA level at 1 to 5 uM incubated for 24 hrs by qPCR analysis", "type": "functional, cell-based", "conditions": "dose 1-5 µM"}, "Mus musculus [10]": {"test_system": "Mus musculus", "assay": "Anti-fibrotic activity in C57BL/6J mouse model of unilateral ureteral obstruction assessed as minimum effective dose administered intraperitoneally every day for 7 days", "type": "functional", "conditions": "route ip; time 7 day"}, "NIH3T3 [11]": {"test_system": "NIH3T3", "assay": "Inhibition of TGF-beta1-induced EMT in mouse NIH3T3 cells assessed as decrease in alpha-SMA level at 10 uM incubated for 48 hrs by Western blot analysis", "type": "functional, cell-based"}, "Mus musculus [12]": {"test_system": "Mus musculus", "assay": "Anti-fibrotic activity in C57BL/6J mouse model of unilateral ureteral obstruction assessed as decrease in kidney inflammation at 0.05 to 1.25 mg/kg, ip administered every day for 7 days", "type": "functional, organism-based", "conditions": "dose 0.05-1.25 mg/kg, time 7.0 day"}, "NIH3T3 [13]": {"test_system": "NIH3T3", "assay": "Inhibition of myofibroblast activation in TGF-beta1-induced EMT in mouse NIH3T3 cells assessed as decrease in alpha-SMA level incubated for 48 hrs by Western blot analysis", "type": "functional, cell-based", "conditions": "dose 1-10 µM"}, "HK-2 [14]": {"test_system": "HK-2", "assay": "Inhibition of myofibroblast activation in TGF-beta1-induced EMT in human HK-2 cells assessed as decrease in collagen I level at 1 to 5 uM incubated for 24 hrs by Western blot analysis", "type": "functional, cell-based", "conditions": "dose 1-5 µM"}, "Mus musculus [15]": {"test_system": "Mus musculus", "assay": "Anti-fibrotic activity in C57BL/6J mouse model of unilateral ureteral obstruction assessed as decrease in renal collagen I […] level administered intraperitoneally every day for 7 days by IHC analysis", "type": "functional, organism-based", "conditions": "dose 0.05-1.25 mg/kg, route ip, time 7.0 day"}, "NIH3T3 [16]": {"test_system": "NIH3T3", "assay": "Inhibition of myofibroblast activation in TGF-beta1-induced EMT in mouse NIH3T3 cells assessed as decrease in vimentin level at 1 to 2 uM incubated for 48 hrs by Western blot analysis", "type": "functional, cell-based", "conditions": "dose 1-2 µM"}, "NIH3T3 [17]": {"test_system": "NIH3T3", "assay": "Inhibition of myofibroblast activation in TGF-beta1-induced EMT in mouse NIH3T3 cells assessed as decrease in MMP2 level at 1 to 2 uM incubated for 48 hrs by Western blot analysis", "type": "functional, cell-based", "conditions": "dose 1-2 µM"}, "[18]": {"assay": "AUC (0 to t) in male C57BL/6J mouse at 2.8 mg/kg, iv measured for 3 to 240 mins by UHPLC-HRMS analysis", "type": "ADME, organism-based", "conditions": "in vivo, time 3-240 min"}, "Mus musculus [19]": {"test_system": "Mus musculus", "assay": "Anti-fibrotic activity in C57BL/6J mouse model of unilateral ureteral obstruction assessed as decrease in collagen I mRNA level at 0.25 mg/kg, ip administered every day for 7 days by qPCR analysis", "type": "functional, organism-based", "conditions": "time 7.0 day"}, "NIH3T3 [20]": {"test_system": "NIH3T3", "assay": "Inhibition of myofibroblast activation in TGF-beta1-induced EMT in mouse NIH3T3 cells assessed as decrease in alpha-SMA mRNA level at 1 to 2 uM incubated for 48 hrs by qPCR analysis", "type": "functional, cell-based", "conditions": "dose 1-2 µM"}, "NIH3T3 [21]": {"test_system": "NIH3T3", "assay": "Cytotoxicity against mouse NIH3T3 cells assessed as inhibition of cell viability at 10 to 40 uM incubated for 48 hrs by CCK8 assay", "type": "toxicity, cell-based", "conditions": "nih3t3, 48 h, dose 10-40 µM"}, "[22]": {"assay": "Stability in C57BL/6J mouse serum assessed as proteolysis resistance measured up to 72 hrs by HPLC analysis", "type": "ADME, cell-free"}, "Mus musculus [23]": {"test_system": "Mus musculus", "assay": "Anti-fibrotic activity in C57BL/6J mouse model of unilateral ureteral obstruction assessed as decrease in MMP2 mRNA level at 0.25 mg/kg, ip administered every day for 7 days by qPCR analysis", "type": "functional, organism-based", "conditions": "time 7.0 day"}, "Mus musculus [24]": {"test_system": "Mus musculus", "assay": "Anti-fibrotic activity in C57BL/6J mouse model of unilateral ureteral obstruction assessed as decrease in renal inflammation at 0.05 to 1.25 mg/kg, ip administered every day for 7 days by H and E staining based analysis", "type": "functional, organism-based", "conditions": "dose 0.05-1.25 mg/kg, time 7.0 day"}, "[25]": {"assay": "Clearance in male C57BL/6J mouse at 2.8 mg/kg, iv measured for 3 to 240 mins by UHPLC-HRMS analysis", "type": "ADME, organism-based", "conditions": "in vivo, time 3-240 min"}, "HK-2 [26]": {"test_system": "HK-2", "assay": "Inhibition of myofibroblast activation in TGF-beta1-induced EMT in human HK-2 cells assessed as increase in E-cadherin level at 1 to 5 uM incubated for 24 hrs by Western blot analysis", "type": "functional, cell-based", "conditions": "dose 1-5 µM"}, "NIH3T3 [27]": {"test_system": "NIH3T3", "assay": "Inhibition of myofibroblast activation in TGF-beta1-induced EMT in mouse NIH3T3 cells assessed as decrease in TGF-beta1 mRNA level at 1 to 2 uM incubated for 48 hrs by qPCR analysis", "type": "functional, cell-based", "conditions": "dose 1-2 µM"}, "HK-2 [28]": {"test_system": "HK-2", "assay": "Inhibition of myofibroblast activation in TGF-beta1-induced EMT in human HK-2 cells assessed as decrease in ACTA2 mRNA level at 1 to 5 uM incubated for 24 hrs by qPCR analysis", "type": "functional, cell-based", "conditions": "dose 1-5 µM"}, "[29]": {"assay": "Volume of distribution in male C57BL/6J mouse at 2.8 mg/kg, iv measured for 3 to 240 mins by UHPLC-HRMS analysis", "type": "ADME, organism-based", "conditions": "in vivo, time 3-240 min"}, "HK-2 [30]": {"test_system": "HK-2", "assay": "Cytotoxicity against human HK-2 cells assessed as inhibition of cell viability at 160 uM incubated for 24 hrs by CCK8 assay", "type": "toxicity, cell-based", "conditions": "hk-2, 24 h"}, "Mus musculus [31]": {"test_system": "Mus musculus", "assay": "Anti-fibrotic activity in C57BL/6J mouse model of unilateral ureteral obstruction assessed as decrease in renal alpha-SMA […] level administered intraperitoneally every day for 7 days by IHC analysis", "type": "functional, organism-based", "conditions": "dose 0.05-1.25 mg/kg, route ip, time 7.0 day"}, "HK-2 [32]": {"test_system": "HK-2", "assay": "Inhibition of myofibroblast activation in TGF-beta1-induced EMT in human HK-2 cells assessed as increase in CDH-1 mRNA level at 1 to 5 uM incubated for 24 hrs by qPCR analysis", "type": "functional, cell-based", "conditions": "dose 1-5 µM"}}, "note": "Activity calls are given as the source filed them. The rule behind the calls is not given here.", "data": [{"smiles": "CCCCCCCCCCCC(=O)N[C@H](CC(=O)O)C(=O)N[C@@H](Cc1c[nH]cn1)C(=O)N[C@@H](CC(N)=O)C(=O)N[C@H]1CSCCCCCCSC[C@@H](C(N)=O)NC(=O)[C@@H](C)NC(=O)[C@H](CCC(N)=O)NC(=O)[C@@H]2CCCN2C1=O", "values": [{"measurement": "Activity", "setting": "Mus musculus [1]", "result": "Active"}, {"measurement": "inhibition", "setting": "NIH3T3 [2]", "result": "Active"}, {"measurement": "inhibition", "setting": "NIH3T3 [3]", "result": "Active"}, {"measurement": "inhibition", "setting": "NIH3T3 [4]", "result": "Active"}, {"measurement": "inhibition", "setting": "HK-2 [5]", "result": "Active"}, {"measurement": "inhibition", "setting": "NIH3T3 [6]", "result": "Active"}, {"measurement": "Activity", "setting": "Mus musculus [7]", "result": "Active"}, {"measurement": "Activity", "setting": "Mus musculus [8]", "result": "Active"}, {"measurement": "inhibition", "setting": "HK-2 [9]", "result": "Active"}, {"measurement": "MEC", "setting": "Mus musculus [10]", "result": 0.05, "unit": "mg/kg"}, {"measurement": "inhibition", "setting": "NIH3T3 [11]", "result": "Active"}, {"measurement": "Activity", "setting": "Mus musculus [12]", "result": "Active"}, {"measurement": "inhibition", "setting": "NIH3T3 [13]", "result": "Active; No Further Enhancement In Antifibrotic Activity Was Observed At Concentrations Above 2 Î¼M"}, {"measurement": "inhibition", "setting": "HK-2 [14]", "result": "Active"}, {"measurement": "Activity", "setting": "Mus musculus [15]", "result": "Dose-dependent-effect"}, {"measurement": "inhibition", "setting": "NIH3T3 [16]", "result": "Active"}, {"measurement": "inhibition", "setting": "NIH3T3 [17]", "result": "Active"}, {"measurement": "AUC(0-t)", "setting": "[18]", "result": 1890, "unit": "ng·h/mL"}, {"measurement": "Activity", "setting": "Mus musculus [19]", "result": "Active"}, {"measurement": "inhibition", "setting": "NIH3T3 [20]", "result": "Active"}, {"measurement": "Activity", "setting": "NIH3T3 [21]", "result": "Non-toxic"}, {"measurement": "Stability", "setting": "[22]", "result": "Stable"}, {"measurement": "Activity", "setting": "Mus musculus [23]", "result": "Active"}, {"measurement": "Activity", "setting": "Mus musculus [24]", "result": "Active"}, {"measurement": "clearance", "setting": "[25]", "result": 0.467, "unit": "mL/min"}, {"measurement": "inhibition", "setting": "HK-2 [26]", "result": "Active"}, {"measurement": "inhibition", "setting": "NIH3T3 [27]", "result": "Active"}, {"measurement": "inhibition", "setting": "HK-2 [28]", "result": "Active"}, {"measurement": "Vd", "setting": "[29]", "result": 0.044, "unit": "L"}, {"measurement": "Activity", "setting": "HK-2 [30]", "result": "Non-toxic"}, {"measurement": "Activity", "setting": "Mus musculus [31]", "result": "Dose-dependent-effect"}, {"measurement": "inhibition", "setting": "HK-2 [32]", "result": "Active"}]}]}
